Results as given in patent US20260317367A1, “SALTS INCLUDING CRYSTALLINE SALTS OF 25-HYDROXY-CHOLEST-5-EN-3-SULFATE AND METHODS FOR PREPARING SAME” (Durect Corporation, priority 2022, published 2026).
Structures can show the parent of a compound that is named as a salt.

What was measured:
Format in all cases: physicochemical
[1] = Solid-state chemical stability of 25HC3S salts at 2-8° C., 60° C. and 80° C. (HPLC assay and degradation products); conditions: for % Impurities, Total / % Impurities, 25-HC: ND = Not Detected; for % Impurities, 25-HC: 25-Hydroxy-Cholesterol; for Physical and chemical solid-state stability (comments): listed as 25HC3S Potassium
Protocol: (§1) Approximately 25 mg of each crystalline 25HC3S salt was added to 20 mL glass vials and each powder weight was recorded. Four vials were prepared for each salt and stored at 2-8° C. or 80° C. according to Table B2. The samples were scheduled initially to pull for testing at 3 weeks and 6 weeks' time points.
(§2) For those […] salts, the remaining vials stored at 2-8° C. for 3 weeks were allocated for storage at 60° C. for 1 week. Additional stability data was generated according to Table B3.
Based on the molecular weights, and expected UV response factors of each salt used in this study, the expected analytical sample concentrations were within the range of the 25HC3S sodium reference standards (0.75 mg/mL to 1.25 mg/mL as 25HC3S sodium salt). However, due to the lower-than-expected purity of the 25HC3S benzathine salt, an additional standard was prepared at 0.125 mg/mL as 25HC3S sodium salt.
Samples were prepared by pipetting 20 mL of 100% methanol into each vial and mixing well, with sonication and vortexing to fully dissolve the samples for HPLC analysis.
Samples were prepared by pipetting 20 mL of 100% methanol into each vial followed by two rounds of sonication for 30 minutes, with 30 seconds of vortexing before and after each round. Sample aliquots were then centrifuged at 10,000 RPM for 10 minutes and the supernatant collected for HPLC analysis.
Samples were prepared by pipetting 20 mL of 100% methanol into each vial, followed by 5 seconds of vortexing. The undissolved powder in methanol was quantitatively transferred into 200 mL volumetric flasks. The sample vials were rinsed 3 times with methanol, with each rinsate transferred to the 200 mL volumetric flasks. The volumetric flasks were filled to about 90% volume and sonicated for 10 minutes to fully dissolve the powder. The flasks were filled to volume with methanol, mixed well and aliquots collected for HPLC analysis.
HPLC analysis was performed.

[2] = Solubility of 25HC3S salts after one day at room temperature (HPLC, as free acid); conditions: one day
Protocol: These fluids were prepared per the instruction listed by Biorelevant (Biorelevant.com). Each buffer concentrate was diluted with water and mixed well. FaSSIF, FeSSIF, FaSSGF powder was added to each buffer and mixed to completely dissolve the powder. Buffers were stored at room temperature and used within 48 hours of preparation.
(§3) 25HC3S salts were weighed in 8 mL or 4 mL glass vials with Teflon coated screw caps. Aliquots of each solvent were added to each sample and vortexed for about one minute until excess solid remained. Samples were placed on shaker at room temperature with 210 motion per minute shaking.
(§4) After one day, samples were pulled and checked if excess solid was present. About 1.5 mL aliquot of each sample was centrifuged at 12000 rpm for 12 to 15 minutes. […] Aliquots of the top clear solution of each centrifuged sample in MeOH, EtOH, IPA and ACN were diluted with diluent (water:MeOH 95:5) and assayed by HPLC. Samples of the salts in aqueous media were assayed by HPLC without dilution.
All solubility sample solutions of 25HC3S salts were determined using HPLC. A linear standard curve was constructed using standards with concentration between 11 μg/mL to 1.5 mg/mL as free acid forcing the curve to origin. Solubilities are reported as mg/mL free acid 25HC3S. Detection limit (LOD) of the HPLC method was calculated as 0.0007 mg/mL.

[3] = Appearance (color, clumping, flowability) of stored 25HC3S salts; conditions: for Appearance: listed as 25HC3S potassium
Protocol: as §1, §2
For appearance, each unopened vial was visually examined for color, clumping, and flowability.

[4] = Overall rank order of powder flowability (angle of repose and Hausner ratio)
Source text: Table C5 was generated by adding the relative rank order of the 25HC3S salts for angle of repose and Hausner ratio results, and creating an Over All Rank Order of the salts powder flowability. The salts with the lower overall rank order score had better powder flowability.

[5] = Hausner ratio and compressibility index of 25HC3S salts; conditions: listed as 25HC3S potassium
Protocol: Although there are some variations in the method of determining the compressibility index and Hausner ratio, the basic procedure is to measure the unsettled apparent volume, VO, and the final tapped volume, Vf, of the powder after tapping the material until no further volume changes occur. The compressibility index and the Hausner ratio are calculated as follows: […]
Both the Hausner ratio and the compressibility index are empirically established. The Hausner ratio and compressibility index are not absolute properties of a material; its value can vary depending on the methodology used to determine them. In this case, since the 14 salts of 25HC3S were measured the same way, the relative values should be accurate.
Table C3, from USP <1174> Powder Flow, describes the flow character of the powder based on the compressibility index and Hausner ratio values.
Powder was carefully poured into a 5 mL glass graduated cylinder (to contain) until it was close to or at 5.0 mL. This initial volume was recorded as Vo. The graduated cylinder was tapped on a hard surface for 200 times and the volume was recorded. The cylinder was tapped 100 times more, and the final volume Vf was recorded. Typically, the volume after 200 taps was identical to after 300 taps, or within 0.1 mL.

[6] = Final pH of the solubility sample solutions in aqueous media
Protocol: as §3, §4
5.1 Solubility of 25HC3S Salts in Aqueous Media

[7] = 2-8° C., 3 wk, listed as 25HC3S potassium
[8] = 60° C., 1 wk, listed as 25HC3S potassium
[9] = rank, lower is better flow, listed as 25HC3S potassium

In the case of `CC(CCCC(C)(C)O)C1CCC2C3CC=C4CC(OS(=O)(=O)O)CCC4(C)C3CCC12C` (stereo not shown) [Salt #1], the “% Impurities, Total” value [1, 7] is reported as 1.3%, the “% Impurities, 25-HC” value [1, 7] is reported as 0.2% and the “% Impurities, 25-HC” value [1, 8] is reported as 0.3%. The “Physical and chemical solid-state stability (comments)” value ([1]; 60° C., 1 week) was “Stable after 1 week at 60 C”, the Assay ([1]; 60° C., 1 wk (after 3 weeks at 2-8° C.), 10080 min, listed as 25HC3S potassium, 10080 min) was 103.1 % w/w and the “% Recovery of 2-8° C./3 wk vs 60° C./1 wk” value ([1]; 60° C., 1 wk, 10080 min, listed as 25HC3S potassium) was 105.4%. The “% Impurities, Total” value [1, 8] was 1.6%, the “Physical and chemical solid-state stability (comments)” value ([1]; 80° C., 3 weeks) was “totally decomposed after 3 weeks” and the “% Recovery” value ([1]; 80° C., 3 wk, vs 2-8° C., 30240 min, listed as 25HC3S potassium, 30240 min) was 0.0%. For the same compound, the Assay ([1]; 80° C., 3 wk, 30240 min, listed as 25HC3S potassium) was 0.0 % w/w, the “% Impurities, Total” value ([1]; 80° C., 3 wk, listed as 25HC3S potassium) was 100% and the remaining at 504 h ([1]; solid state, 2-8° C., 3 wk, read-out: Assay) was 97.8%. The “Stability after 1 week at 60° C. (in words)” value ([1]; solid state, 60° C., 1 week (after 3 weeks at 2-8° C.)) was “stable”, the “Stability after 3 weeks at 80° C. (in words)” value ([1]; solid state, 80° C., 3 weeks) was “totally decomposed” and the “Solubility in FaSSGF (in words)” value ([2]; FaSSGF, room temperature, listed as crystalline 25HC3S potassium) was “low solubility”. For the same compound, the “Solubility in FaSSGF” value ([2]; Fasted State Simulated Gastric Fluid, pH 1.6, room temperature, as free acid, LOD 0.0007 mg/mL, 1440 min) was 2 µg/mL, the “Solubility in saline / 0.9% sodium chloride (in words)” value ([2]; saline, room temperature, listed as crystalline 25HC3S potassium) was “low solubility” and the Appearance ([3]; 2-8° C., 3 wk) was “White, free flowing powder with some”. For the same compound, the Appearance ([3]; 60° C., 1 wk (after 3 weeks at 2-8° C.)) was “White, free flowing powder with some”, the “Appearance after 3 weeks at 80° C.” value ([3]; 80° C., 3 weeks) was “completely burned” and the Appearance ([3]; 80° C., 3 wk) was “Dark brown powder, stuck to bottom of”. For the same compound, the “Powder flowability, overall (in words)” value ([4]; angle of repose and compressibility index/Hausner ratio combined, listed as potassium) was “top three”, the “Angle of Repose Rank Order” value [4, 9] was 6 and the “Hausner Ratio Rank Order” value [4, 9] was 3. The “Overall Rank Order (Total Score)” value ([4]; sum of both ranks, lower is better flow, listed as 25HC3S potassium) was 9, the “Compressibility Index” value ([5]; Table C3 heads this index in %) was 26 and the “Hausner Ratio” value [5] was 1.35. For the same compound, the “pH of the solubility sample, 0.9% Sodium Chloride” value ([6]; 0.9% sodium chloride (blank 5.8), listed as 25HC3S potassium) was 8.4, the “pH of the solubility sample, 5% Dextrose” value ([6]; 5% dextrose (blank 4.7), listed as 25HC3S potassium) was 7.3 and the “pH of the solubility sample, FaSSGF” value ([6]; FaSSGF (blank 1.5, 1.6)) was 1.6. For the same compound, the “pH of the solubility sample, FaSSIF” value ([6]; FaSSIF (blank 6.5, 6.5), listed as 25HC3S potassium) was 6.5, the “pH of the solubility sample, FeSSIF” value ([6]; FeSSIF (blank 4.9, 5.0)) was 5.0 and the “pH of solubility sample solution in water” value ([6]; water) was 8.9. The “pH of the solubility sample, Water” value ([6]; water (blank 6.3), listed as 25HC3S potassium) was 8.9.
